Assay results taken from patent publication US7378404B2, “8β-hydrocarbyl-substituted estratrienes for use as selective estrogens” (priority 2000, dated 2008).

Legend:
[1] = tested on: hERβ; details: estradiol = 100; cited from earlier work
[2] = tested on: 5HT2a-receptor and serotonin transporter; experiment: Expression of 5HT2a-receptor and serotonin transporter in ERβ-rich brain areas after one-time administration in rats; format: in vivo; details: rat brain
Experimental: Compared to the effect on the serotonin receptor and transporter expression, the effect on the LH-secretion is measured. […] The density of serotonin receptors and transporters is determined in brain sections using radioactive ligands, and the corresponding mRNA is determined using in situ hybridization. The method is described in the literature: G. Fink & B. E. H. Sumner 1996 Nature 383: 306; B. E. H. Sumner et al. 1999 Molecular Brain Research, in press.

[3] = tested on: estrogen receptor of rat prostates; experiment: Competitive binding with 3H-estradiol to estrogen receptor preparation of rat prostate cytosol; details: for RBA Rat Prostate: Table 2; for binding affinity to estrogen receptor of rat prostates compared with estrogen receptor of rat uteri: rat prostate ER versus rat uterus ER; for Rat prost. ER (RBA): Table 1, estradiol = 100
[4] = target: T1, estrogen receptor of rat uteri (Rattus norvegicus, UniProt P06211); experiment: Competitive binding with 3H-estradiol to estrogen receptor preparation of rat uterus cytosol; details: for RBA Rat Uterus: Table 2
T1 construct: The preparation of rat uterus cytosol as well as the receptor test with the ER-containing cytosol; from tissue; host or cells: rat uterus cytosol
T1 sequence (P06211 1-600): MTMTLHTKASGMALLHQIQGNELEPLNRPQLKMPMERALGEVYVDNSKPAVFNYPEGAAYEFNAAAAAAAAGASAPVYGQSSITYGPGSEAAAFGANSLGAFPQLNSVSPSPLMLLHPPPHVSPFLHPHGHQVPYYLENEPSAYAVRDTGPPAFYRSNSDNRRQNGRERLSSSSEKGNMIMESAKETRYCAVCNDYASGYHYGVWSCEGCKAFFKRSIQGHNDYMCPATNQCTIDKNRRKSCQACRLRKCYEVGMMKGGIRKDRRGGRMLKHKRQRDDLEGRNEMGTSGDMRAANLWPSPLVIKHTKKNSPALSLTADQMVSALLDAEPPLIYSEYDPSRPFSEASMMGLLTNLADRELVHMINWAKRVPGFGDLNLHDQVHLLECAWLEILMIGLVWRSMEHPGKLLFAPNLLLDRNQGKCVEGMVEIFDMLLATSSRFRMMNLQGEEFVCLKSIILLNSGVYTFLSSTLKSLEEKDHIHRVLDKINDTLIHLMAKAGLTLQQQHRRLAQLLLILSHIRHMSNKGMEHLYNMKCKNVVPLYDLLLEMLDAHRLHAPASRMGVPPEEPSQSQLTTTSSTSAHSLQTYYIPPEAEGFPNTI

[5] = tested on: hERβ; experiment: Relative binding affinity (RBA) to hERβ, cited from Kuiper et al.; set-up: species or system human; details: quotient of RBA hERβ / hERα
Excerpt: In this case, it is assumed that ERβ predominates in the rat prostates over ERα, and ERα predominates in rat uteri over ERβ.

SMILES: C[C@]12CC[C@@H]3c4ccc(O)cc4CC[C@H]3[C@@H]1C[C@@H](O)[C@@H]2O [Estriol]
- hERβ RBA [1]: 21

SMILES: C[C@@]12CCc3cc(O)ccc3[C@H]1CC[C@@]1(C)[C@H]2CC[C@@H]1O [D, 8β-methyl-estra-1,3,5(10)-triene-3,17β-diol]
- expression of the serotonin receptor and transporter [2]: increased expression
- RBA Rat Prostate [3]: 67
- binding affinity to estrogen receptor of rat prostates compared with estrogen receptor of rat uteri [3]: higher binding affinity
- RBA Rat Uterus [4]: 1.3

SMILES: C[C@]12CC[C@@H]3c4ccc(O)cc4CC[C@H]3[C@@H]1CC[C@H]2O [17α-Estradiol, reference compound]
- Rat prost. ER (RBA) [3]: 1.3

SMILES: C=C[C@@]12CCc3cc(O)ccc3[C@H]1CC[C@@]1(C)[C@H]2CC[C@@H]1O [B, 8β-vinyl-estra-1,3,5(10)-triene-3,17β-diol]
- expression of the serotonin receptor and transporter [2]: increased expression
- RBA Rat Prostate [3]: 63
- binding affinity to estrogen receptor of rat prostates compared with estrogen receptor of rat uteri [3]: higher binding affinity
- RBA Rat Uterus [4]: 0.7

SMILES: CC[C@@]12CCc3cc(O)ccc3[C@H]1CC[C@@]1(C)[C@H]2CC[C@@H]1O [E, 8β-ethyl-estra-1,3,5(10)-triene-3,17β-diol]
- expression of the serotonin receptor and transporter [2]: increased expression
- RBA Rat Prostate [3]: 7
- binding affinity to estrogen receptor of rat prostates compared with estrogen receptor of rat uteri [3]: higher binding affinity
- RBA Rat Uterus [4]: <0.3

SMILES: COc1ccc2c(c1)CC[C@]1(C)C2=CC[C@@]2(C)[C@H]1CC[C@@H]2O
- melting point: 168 °C

SMILES: C=C[C@@]12CCc3cc(O)ccc3C1=CC[C@@]1(C)[C@H]2CC[C@@H]1O [A, 8β-Vinyl-estra-1,3,5(10),9(11)-tetraene-3,17β-diol]
- expression of the serotonin receptor and transporter [2]: increased expression
- RBA Rat Prostate [3]: 83
- binding affinity to estrogen receptor of rat prostates compared with estrogen receptor of rat uteri [3]: higher binding affinity
- RBA Rat Uterus [4]: 1

SMILES: O=c1c(-c2ccc(O)cc2)coc2cc(O)cc(O)c12 [Genisteine, reference compound]
- Rat prost. ER (RBA) [3]: 10

SMILES: C[C@]12CC[C@@H]3c4ccc(O)cc4CC[C@@]3(C=C(F)F)[C@@H]1CC[C@@H]2O [C, 8β-(2,2-difluorovinyl)-estra-1,3,5(10)-triene-3,17β-diol]
- expression of the serotonin receptor and transporter [2]: increased expression
- RBA Rat Prostate [3]: 5
- binding affinity to estrogen receptor of rat prostates compared with estrogen receptor of rat uteri [3]: higher binding affinity
- RBA Rat Uterus [4]: 0.9

SMILES: C[C@]12CC[C@H]3[C@@H](CC=C4C[C@@H](O)CC[C@@]43C)[C@@H]1CC[C@@H]2O [5-Androstenediol, reference compound]
- hERβ RBA [1]: 17
- Rat prost. ER (RBA) [3]: 5
- prost. ER/uterus ER ([3]; ratio of RBA rat prostate ER / rat uterus ER): 50
- ERβ/ERα [5]: 3
- Rat uterus ER (RBA) ([4]; Table 1, estradiol = 100): 0.1
